One assay deals with T1, CDK9/CycT1 (Homo sapiens, UniProt P50750).
T1 construct: Recombinant full-length His-tagged human CDK9 and CycT1; His; purchased Invitrogen PV4131; host or cells: insect cells
In words: CDK9/CycT1 kinase assay (TR-FRET, Method 1a). Type of assay: biochemical. As to conditions: 10 μM ATP; for IC50: Method 1a; for Selectivity CDK9 over CDK2: IC50 (CDK2)/IC50 (CDK9): Methods 1a and 2a. The source says: 1a. CDK9/CycT1 Kinase Assay:
CDK9/CycT1-inhibitory activity of compounds of the present invention was quantified employing the CDK9/CycT1 TR-FRET assay as described in the following paragraphs:
Recombinant full-length His-tagged human CDK9 and CycT1, expressed in insect cells and purified by Ni-NTA affinity chromatography, were purchased from Invitrogen (Cat. No PV4131). As substrate for the kinase reaction biotinylated peptide biotin-Ttds-YISPLKSPYKISEG (C-terminus in amid form) was used which can be purchased e.g. from the company JERINI Peptide Technologies (Berlin, Germany).
(§1) For the assay 50 nl of a 100 fold concentrated solution of the test compound in DMSO was pipetted into a black low volume 384 well microtiter plate (Greiner Bio-One, Frickenhausen, Germany), 2 μl of a solution of CDK9/CycT1 in aqueous assay buffer [50 mM Tris/HCl pH 8.0, 10 mM MgCl2, 1.0 mM dithiothreitol, 0.1 mM sodium ortho-vanadate, 0.01% (v/v) Nonidet-P40 (Sigma)] were added and the mixture was incubated for 15 min at 22° C. to allow pre-binding of the test compounds to the enzyme before the start of the kinase reaction. […] The concentration of CDK9/CycT1 was adjusted depending of the activity of the enzyme lot and was chosen appropriate to have the assay in the linear range, typical concentrations were in the range of 1 μg/mL. The reaction was stopped by the addition of 5 μl of a solution of TR-FRET detection reagents (0.2 μM streptavidine-XL665 [Cisbio Bioassays, Codolet, France] and 1 nM anti-RB(pSer807/pSer811)-antibody from BD Pharmingen [#558389] and 1.2 nM LANCE EU-W1024 labeled anti-mouse IgG antibody [Perkin-Elmer, product no. AD0077]) in an aqueous EDTA-solution (100 mM EDTA, 0.2% (w/v) bovine serum albumin in 100 mM HEPES pH 7.5).
(§2) The resulting mixture was incubated 1 h at 22° C. to allow the formation of complex between the phosphorylated biotinylated peptide and the detection reagents. Subsequently the amount of phosphorylated substrate was evaluated by measurement of the resonance energy transfer from the Eu-chelate to the streptavidine-XL. Therefore, the fluorescence emissions at 620 nm and 665 nm after excitation at 350 nm was measured in a HTRF reader, e.g. a Rubystar (BMG Labtechnologies, Offenburg, Germany) or a Viewlux (Perkin-Elmer). The ratio of the emissions at 665 nm and at […] was taken as the measure for the amount of phosphorylated substrate. The data were normalised (enzyme reaction without inhibitor=0% inhibition, all other assay components but no enzym=100% inhibition).

The target in the next assay is T2, CDK2/CycE (Homo sapiens, UniProt P24941).
T2 construct: GST; purchased ProQinase GmbH (Freiburg, Germany); host or cells: insect cells (Sf9)
In words: CDK2/CycE kinase assay (TR-FRET, Method 2a). Type of assay: biochemical. As to conditions: 10 μM ATP.
Excerpt: 2a. CDK2/CycE Kinase Assay:
CDK2/CycE-inhibitory activity of compounds of the present invention was quantified employing the CDK2/CycE TR-FRET assay as described in the following paragraphs:
Recombinant fusion proteins of GST and human CDK2 and of GST and human CycE, expressed in insect cells (Sf9) and purified by Glutathion-Sepharose affinity chromatography, were purchased from ProQinase GmbH (Freiburg, Germany). As substrate for the kinase reaction biotinylated peptide biotin-Ttds-YISPLKSPYKISEG (C-terminus in amid form) was used which can be purchased e.g. from the company JERINI Peptide Technologies (Berlin, Germany).
as §1, with “CDK2/CycE” for “CDK9/CycT1”, “130 ng/mL.” for “1 μg/mL.”
as §2, with “TR-FRET” for “HTRF”
(TR-FRET usually uses a lanthanide donor and a delayed reading to cut background.)

The values that follow come from patent publication US10214542B2, “Modified macrocyclic compounds” (BAYER PHARMA AKTIENGESELLSCHAFT, priority 2015, dated 2019).

T1 sequence (P50750 whole entry): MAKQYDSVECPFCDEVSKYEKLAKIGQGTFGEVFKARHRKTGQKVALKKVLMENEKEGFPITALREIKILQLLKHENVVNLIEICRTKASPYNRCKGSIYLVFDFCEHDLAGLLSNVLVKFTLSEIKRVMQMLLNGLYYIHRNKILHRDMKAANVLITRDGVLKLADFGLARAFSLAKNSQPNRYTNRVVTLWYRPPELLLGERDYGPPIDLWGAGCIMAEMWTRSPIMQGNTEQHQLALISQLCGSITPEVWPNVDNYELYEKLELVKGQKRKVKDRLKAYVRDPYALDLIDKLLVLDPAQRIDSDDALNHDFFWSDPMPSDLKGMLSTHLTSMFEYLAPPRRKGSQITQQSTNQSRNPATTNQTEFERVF
T1 sequence (O60563 whole entry partner): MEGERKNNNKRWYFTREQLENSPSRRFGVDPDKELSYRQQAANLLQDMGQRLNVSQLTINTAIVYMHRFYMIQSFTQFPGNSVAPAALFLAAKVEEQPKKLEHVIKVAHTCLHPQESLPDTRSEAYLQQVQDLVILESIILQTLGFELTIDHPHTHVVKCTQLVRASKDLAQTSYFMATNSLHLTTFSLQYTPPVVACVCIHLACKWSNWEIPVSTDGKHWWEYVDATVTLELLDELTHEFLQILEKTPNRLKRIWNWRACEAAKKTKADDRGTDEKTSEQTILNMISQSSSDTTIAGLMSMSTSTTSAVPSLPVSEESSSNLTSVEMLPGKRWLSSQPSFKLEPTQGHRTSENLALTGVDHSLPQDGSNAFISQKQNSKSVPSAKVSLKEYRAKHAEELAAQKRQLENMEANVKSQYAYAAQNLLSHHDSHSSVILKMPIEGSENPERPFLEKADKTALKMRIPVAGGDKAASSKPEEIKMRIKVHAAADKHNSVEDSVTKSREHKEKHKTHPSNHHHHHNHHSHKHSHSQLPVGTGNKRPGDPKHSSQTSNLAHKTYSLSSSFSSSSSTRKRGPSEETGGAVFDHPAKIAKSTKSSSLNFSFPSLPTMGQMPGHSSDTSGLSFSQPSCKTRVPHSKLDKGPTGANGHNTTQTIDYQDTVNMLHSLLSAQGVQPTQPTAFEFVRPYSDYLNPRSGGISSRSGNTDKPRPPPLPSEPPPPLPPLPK

Turning to `CS(=N)(=O)Cc1cc2nc(c1)Nc1cc(c(F)cn1)-c1ccc(F)cc1OCCCCN2` (racemic) [Example 3, (rac)-16,20-Difluoro-9-[(S-methylsulfonimidoyl)methyl]-3,4,5,6-tetrahydro-2H,12H-11,7-(azeno)-13,17-(metheno)-1,6,12,14-benzoxatriazacyclononadecine], the IC50 against CDK9/CycT1 stood at 8.3 nM; against CDK2/CycE, 44 nM. In addition, the “Selectivity CDK9 over CDK2: IC50 (CDK2)/IC50 (CDK9)” value (“Selectivity CDK9 over CDK2: IC50” below) on CDK9/CycT1 was 5.3.
Taken in the same sequence, the figures for `CS(=N)(=O)Cc1cc2nc(c1)Nc1cc(c(F)cn1)-c1ccc(F)cc1OCCCN2` (racemic) [Example 8, (rac)-15,19-difluoro-8-[(S-methylsulfonimidoyl)methyl]-2,3,4,5-tetrahydro-11H-10,6-(azeno)-16,12-(metheno)-1,5,11,13-benzoxatriazacyclooctadecine] were 2.7 nM, 9.1 nM and 3.4.
On the same counts, the results for `CC(C)(C)OC(=O)N=S(C)(=O)Cc1cc2nc(c1)Nc1cc(c(F)cn1)-c1ccc(F)cc1OCCCN2` (racemic) [Example 7, (rac)-tert-butyl[{[15,19-difluoro-2,3,4,5-tetrahydro-11H-10,6-(azeno)-16,12-(metheno)-1,5,11,13-benzoxatriazacyclooctadecin-8-yl]methyl}(methyl)oxido-λ^6-sulfanylidene]carbamate] are 7.5 nM, 27 nM and 3.6.
For the compound `CS(=N)(=O)Cc1cc2cc(c1)OCCCNc1cc(F)ccc1-c1nc(ncc1F)N2` (racemic) [Example 14, rac-15,19-difluoro-8-[(S-methylsulfonimidoyl)methyl]-1,2,3,4-tetrahydro-16,12-(azeno)-6,10-(metheno)-5,1,11,13-benzoxatriazacyclooctadecine], at CDK9/CycT1, the concentration for half-maximal inhibition (IC50) is 3.2 nM.
For `CS(=N)(=O)Cc1cc2nc(c1)Nc1cc(c(F)cn1)-c1ccc(F)cc1OCCCCCN2` (racemic) [Example 10, (rac)-17,21-difluoro-10-[(S-methylsulfonimidoyl)methyl]-2,3,4,5,6,7-hexahydro-13H-12,8-(azeno)-14,18-(metheno)-1,7,13,15-benzoxatriazacycloicosine], the IC50 on CDK9/CycT1 came out at 3.4 nM; against CDK2/CycE, 28 nM. Besides, the “Selectivity CDK9 over CDK2: IC50” value on CDK9/CycT1 is recorded as 8.2.
Taken in the same sequence, the figures for `CSCc1cc2nc(c1)OCCCCc1cc(F)ccc1-c1cc(ncc1F)N2` [Example 4, 2,18-Difluoro-9-[(methylsulfanyl)methyl]-13,14,15,16-tetrahydro-6H-7,11-(azeno)-5,1-(metheno)-12,4,6-benzoxadiazacyclooctadecine] were 36 nM, > 20000 nM and >556.
Consider `CSCc1cc2nc(c1)OCCCCCc1cc(F)ccc1-c1cc(ncc1F)N2` [Example 18, 2,19-difluoro-9-[(methylsulfanyl)methyl]-14,15,16,17-tetrahydro-6H,13H-7,11-(azeno)-5,1-(metheno)-12,4,6-benzoxadiazacyclononadecine], for which, at CDK9/CycT1, the IC50 is 99 nM and the “Selectivity CDK9 over CDK2: IC50” value is recorded as 25.9. Moreover, it took 2560 nM to reach half-maximal inhibition against CDK2/CycE (IC50).
On the same counts, the results for `CS(=N)(=O)Cc1cc2nc(c1)OCCCCCc1cc(F)ccc1-c1cc(ncc1F)N2` (racemic) [Example 20, (rac)-2,19-difluoro-9-[(S-methylsulfonimidoyl)methyl]-14,15,16,17-tetrahydro-6H,13H-7,11-(azeno)-5,1-(metheno)-12,4,6-benzoxadiazacyclononadecine] are 5.5 nM, 29.5 and 162 nM.
Take `CC(C)(C)OC(=O)N=S(C)(=O)Cc1cc2cc(c1)Nc1ncc(F)c(n1)-c1ccc(F)cc1OCCCCN2` (racemic) [Example 24, (rac)-tert-butyl[{[16,20-difluoro-3,4,5,6-tetrahydro-2H,12H-13,17-(azeno)-11,7-(metheno)-1,6,12,14-benzoxatriazacyclononadecin-9-yl]methyl}(methyl)oxido-λ^6-sulfanylidene]carbamate]: at CDK9/CycT1, the 50% inhibitory concentration (IC50) worked out at 91 nM and the “Selectivity CDK9 over CDK2: IC50” value was determined as 28.2. In addition, the concentration for half-maximal inhibition (IC50) against CDK2/CycE stood at 2570 nM.
Taken in the same sequence, the figures for `CN1CCCCNc2cc(F)ccc2-c2nc(ncc2F)Nc2cc(CS(C)(=N)=O)cc1c2.O=CO` (racemic) [Example 17, (rac)-16,20-difluoro-6-methyl-9-[(S-methylsulfonimidoyl)methyl]-1,2,3,4,5,6-hexahydro-12H-17,13-(azeno)-11,7-(metheno)-1,6,12,14-benzotetraazacyclononadecine; salt with formic acid] were 4.2 nM, 17.6 and 74 nM.
On the same counts, the results for `CS(=O)(Cc1cc2nc(c1)Nc1cc(c(F)cn1)-c1ccc(F)cc1OCCCCN2)=NC(=O)OCc1ccccc1` (racemic) [Example 2, (rac)-Benzyl[{[16,20-difluoro-3,4,5,6-tetrahydro-2H,12H-11,7-(azeno)-13,17-(metheno)-1,6,12,14-benzoxatriazacyclononadecin-9-yl]methyl}(methyl)oxido-λ^6-sulfanylidene]carbamate] are 14.7 nM, 47.5 and 698 nM.
Taken in the same sequence, the figures for `CSCc1cc2nc(c1F)N(C)CCCCOc1cc(F)ccc1-c1cc(ncc1F)N2` [Example 12, 8,16,20-trifluoro-6-methyl-9-[(methylsulfanyl)methyl]-3,4,5,6-tetrahydro-2H,12H-11,7-(azeno)-13,17-(metheno)-1,6,12,14-benzoxatriazacyclononadecine] were 25 nM, 1.1 and 27 nM.
Compound `CC(C)(C)OC(=O)N=S(C)(=O)Cc1cc2cc(c1)OCCCNc1cc(F)ccc1-c1nc(ncc1F)N2` (racemic) [Example 13, (rac)-tert-butyl[{[15,19-difluoro-1,2,3,4-tetrahydro-16,12-(azeno)-6,10-(metheno)-5,1,11,13-benzoxatriazacyclooctadecin-8(11H)-yl]methyl}(methyl)oxido-λ^6-sulfanylidene]carbamate] displayed a 50% inhibitory concentration (IC50) against CDK9/CycT1 of 6.5 nM.

As a reminder, the IC50 is the concentration that inhibits the measured activity by half. Low values mean greater potency, high ones weaker potency.
